Assay [1] concerns Staphylococcus epidermidis. As to the kind of experiment: Antibacterial activity against Staphylococcus epidermidis ATCC 12228 assessed as inhibition of bacterial growth incubated for 20 to 24 hrs by broth micro dilution method. The settings on record: time 20-24 hrs. The format is functional.
In assay [2] the test system is Pseudomonas aeruginosa. Kind of assay: Antibacterial activity against […] Pseudomonas aeruginosa ATCC 27853 assessed as inhibition of bacterial growth incubated for 20 to 24 hrs by broth micro dilution method. It is filed as functional. As to conditions: time 20-24 hrs.
In assay [3] the test system is Staphylococcus aureus. As to the kind of experiment: Bactericidal activity against Staphylococcus aureus ATCC 29213 assessed as inhibition of bacterial growth incubated for 24 hrs by resazurin dye based microtiter plate assay. It is filed as functional.
Assay [4] deals with Staphylococcus aureus. Kind of assay: Antibacterial activity against methicillin-resistant Staphylococcus aureus ATCC BAA41 assessed as inhibition of bacterial growth incubated for 24 hrs by checker board assay. It is filed as functional.
A short description of assay [5]: Ratio of MBC for bactericidal activity against Staphylococcus aureus ATCC 43300 to MIC for antibacterial activity against Staphylococcus aureus ATCC 43300. The format is functional.
In assay [6] the test system is Enterococcus faecalis. As to the kind of experiment: Antibacterial activity against Enterococcus faecalis ATCC 29212 assessed as inhibition of bacterial growth incubated for 20 to 24 hrs by broth micro dilution method. As to conditions: time 20-24 hrs. The format is functional.
The subject of assay [7] is Staphylococcus aureus. Kind of assay: Antibacterial activity against methicillin-resistant Staphylococcus aureus ATCC 43300 assessed as inhibition of bacterial growth incubated for 20 to 24 hrs by broth micro dilution method. The format is functional. As to conditions: time 20-24 hrs.
For assay [8], the system named is Staphylococcus aureus. As to the kind of experiment: Antibacterial activity against methicillin-resistant Staphylococcus aureus ATCC BAA-1720 assessed as inhibition of bacterial growth incubated for 20 to 24 hrs by broth micro dilution method. The format is functional. As to conditions: time 20-24 hrs.
Assay [9] concerns the target T1, Cell division protein FtsZ (Staphylococcus aureus) (UniProt P0A031).
T1 sequence (whole entry): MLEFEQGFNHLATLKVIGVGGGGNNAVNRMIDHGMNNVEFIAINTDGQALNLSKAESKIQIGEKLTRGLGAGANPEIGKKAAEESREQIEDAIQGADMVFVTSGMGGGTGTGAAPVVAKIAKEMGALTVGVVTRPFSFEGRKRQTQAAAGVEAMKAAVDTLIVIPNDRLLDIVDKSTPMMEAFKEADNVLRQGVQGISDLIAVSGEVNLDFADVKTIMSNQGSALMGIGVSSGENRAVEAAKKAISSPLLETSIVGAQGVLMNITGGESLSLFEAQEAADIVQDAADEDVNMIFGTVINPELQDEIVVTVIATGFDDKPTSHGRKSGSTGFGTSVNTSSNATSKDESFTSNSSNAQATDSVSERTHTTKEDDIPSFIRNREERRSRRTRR
Kind of assay: Binding affinity to Staphylococcus aureus FtsZ assessed as equilibrium binding constant by isothermal titration calorimetry. A general note: ITC needs no label: the signal is the heat of the interaction.

A short description of assay [10]: Ratio of MBC for bactericidal activity against Staphylococcus aureus ATCC 29213 to MIC for antibacterial activity against Staphylococcus aureus ATCC 29213. The format is functional.
Assay [11] has as its system Staphylococcus aureus. As to the kind of experiment: Antibacterial activity against Staphylococcus aureus ATCC 29213 assessed as inhibition of bacterial growth incubated for 20 to 24 hrs by broth micro dilution method. The settings on record: time 20-24 hrs. It is filed as functional.
For assay [12], the system named is Staphylococcus aureus. As to the kind of experiment: Bactericidal activity against Staphylococcus aureus ATCC 43300 assessed as inhibition of bacterial growth incubated for 24 hrs by resazurin dye based microtiter plate assay. It is filed as functional.
Assay [13] deals with Klebsiella pneumoniae. Kind of assay: Antibacterial activity against NDM-1 expressing Klebsiella pneumoniae ATCC BAA 2470 assessed as inhibition of bacterial growth incubated for 20 to 24 hrs by broth micro dilution method. As to conditions: time 20-24 hrs. It is filed as functional.
Assay [14] relates to Escherichia coli. As to the kind of experiment: Antibacterial activity against NDM-1 expressing Escherichia coli ATCC BAA2469 assessed as inhibition of bacterial growth incubated for 20 to 24 hrs by broth micro dilution method. As to conditions: time 20-24 hrs. The format is functional.
In assay [15] the test system is Bacillus subtilis. Kind of assay: Antibacterial activity against Bacillus subtilis CMCC (B) 63501 assessed as inhibition of bacterial growth incubated for 20 to 24 hrs by broth micro dilution method. The settings on record: time 20-24 hrs. The format is functional.
For assay [16], the system named is Staphylococcus aureus. As to the kind of experiment: Antibacterial activity against methicillin-resistant Staphylococcus aureus ATCC BAA41 assessed as fractional inhibitory concentration index incubated for 24 hrs by checker board assay. The format is functional.
Assay [17] concerns Escherichia coli. Kind of assay: Antibacterial activity against Escherichia coli ATCC 25922 assessed as inhibition of bacterial growth incubated for 20 to 24 hrs by broth micro dilution method. As to conditions: time 20-24 hrs. It is filed as functional.
Assay [18] has as its system Enterococcus faecium. As to the kind of experiment: Antibacterial activity against Enterococcus faecium ATCC 49624 assessed as inhibition of bacterial growth incubated for 20 to 24 hrs by broth micro dilution method. It is filed as functional. The settings on record: time 20-24 hrs.
Assay [19] deals with T1, Cell division protein FtsZ (Staphylococcus aureus). Kind of assay: Induction of Staphylococcus aureus FtsZ polymerization expressed in Escherichia coli BL21 (DE3) assessed as increase in absorbance at 2 to 8 ug/ml in presence of GTP by microplate reader method. The settings on record: dose 2-8 µg/ml, DDE = dose-dependent effect.
The subject of assay [20] is Acinetobacter baumannii. As to the kind of experiment: Antibacterial activity against multi-drug resistant Acinetobacter baumannii ATCC 19606 assessed as inhibition of bacterial growth incubated for 20 to 24 hrs by broth micro dilution method. It is filed as functional. The settings on record: time 20-24 hrs.
Assay [21] deals with T2, Cell division protein FtsZ (Staphylococcus aureus, UniProt P0A031).
T2 sequence (P0A031 whole entry): T1 sequence (whole entry)
As to the kind of experiment: Binding affinity to Staphylococcus aureus FtsZ assessed as dissociation constant by isothermal titration calorimetry.

Assay [22] is described as follows: Ratio of MBC for bactericidal activity against Enterococcus faecium ATCC 700221 to MIC for antibacterial activity against Enterococcus faecium ATCC 700221. The format is functional.
The subject of assay [23] is Enterococcus faecium. As to the kind of experiment: Antibacterial activity against vancomycin resistant Enterococcus faecium ATCC 700221 assessed as inhibition of bacterial growth incubated for 20 to 24 hrs by broth micro dilution method. The settings on record: time 20-24 hrs. The format is functional.
In assay [24] the test system is Escherichia coli. As to the kind of experiment: Antibacterial activity against Escherichia coli ATCC 8739 assessed as inhibition of bacterial growth incubated for 20 to 24 hrs by broth micro dilution method. The format is functional. As to conditions: time 20-24 hrs.
Assay [25] concerns Enterococcus faecium. As to the kind of experiment: Antibacterial activity against vancomycin-resistant Enterococcus faecium clinical isolate assessed as inhibition of bacterial growth incubated for 20 to 24 hrs by broth micro dilution method. The format is functional. The settings on record: time 20-24 hrs.
Assay [26] in a line: Ratio of MBC for bactericidal activity against Bacillus subtilis CMCC (B) 63501 to MIC for antibacterial activity against Bacillus subtilis CMCC (B) 63501. The format is functional.
The test system of assay [27] is Bacillus subtilis. As to the kind of experiment: Bactericidal activity against Bacillus subtilis CMCC (B) 63501 assessed as inhibition of bacterial growth incubated for 24 hrs by resazurin dye based microtiter plate assay. It is filed as functional.
The subject of assay [28] is Staphylococcus aureus. Kind of assay: Synergistic antibacterial activity against methicillin-resistant Staphylococcus aureus ATCC BAA41 assessed as inhibition of bacterial growth incubated for 24 hrs in presence of methicillin by checker board assay. The format is functional.
For assay [29], the target named is T1, Cell division protein FtsZ (Staphylococcus aureus). As to the kind of experiment: Binding affinity to Staphylococcus aureus FtsZ assessed as decrease in beta turn structure at 8 ug/ml incubated for 30 mins by circular dichroism method. The settings on record: dose 8.0 µg/ml. For orientation: Circular dichroism is widely used to follow secondary structure.

The subject of assay [30] is Staphylococcus aureus. As to the kind of experiment: Induction of morphological changes in Staphylococcus aureus ATCC 29213 assessed as enlargement of cell size at 0.5 times MIC for 4 hrs by microscopic analysis. The format is functional, organism-based.
In assay [31] the target is T1, Cell division protein FtsZ (Staphylococcus aureus). Kind of assay: Binding affinity to Staphylococcus aureus FtsZ assessed as decrease in other structure at 8 ug/ml incubated for 30 mins by circular dichroism method. The settings on record: dose 8.0 µg/ml.
The test system of assay [32] is Bacillus subtilis. Kind of assay: Induction of morphological changes in Bacillus subtilis CMCC (B) 63501 assessed as elongation of bacterial cell at 0.5 times MIC for 4 hrs (reference value: 3 to 5 um) by microscopic analysis. It is filed as functional.
The subject of assay [33] is Staphylococcus aureus. As to the kind of experiment: Antibacterial activity against vancomycin-intermediate Staphylococcus aureus Mu50 assessed as inhibition of bacterial growth incubated for 20 to 24 hrs by broth micro dilution method. The format is functional. The settings on record: time 20-24 hrs.
The test system of assay [34] is Staphylococcus aureus. Kind of assay: Antibacterial activity against methicillin-resistant Staphylococcus aureus ATCC 33592 assessed as inhibition of bacterial growth incubated for 20 to 24 hrs by broth micro dilution method. The format is functional. The settings on record: time 20-24 hrs.
Assay [35] has as its target T1, Cell division protein FtsZ (Staphylococcus aureus). As to the kind of experiment: Binding affinity to Staphylococcus aureus FtsZ assessed as increase in alpha helix structure at 8 ug/ml incubated for 30 mins by circular dichroism method. The settings on record: dose 8.0 µg/ml.
Assay [36] shares this target. As to the kind of experiment: Binding affinity to Staphylococcus aureus FtsZ assessed as decrease in random coil structure at 8 ug/ml incubated for 30 mins by circular dichroism method. The settings on record: dose 8.0 µg/ml.
Assay [37] concerns Enterococcus faecium. As to the kind of experiment: Bactericidal activity against Enterococcus faecium ATCC 700221 assessed as inhibition of bacterial growth incubated for 24 hrs by resazurin dye based microtiter plate assay. It is filed as functional. In general terms: Resazurin is reduced to fluorescent resorufin, in cell work by metabolically active cells.

Activity calls are given as the source filed them. Where only a bound is given, the exact number is not on record here.

As to `CN(C)c1ccc(/C=C/c2cc(N3CCCCC3)c3ccccc3[n+]2C)cc1.[I-]`, the MIC (in general, the lowest concentration found to suppress growth) in [1] is 1 µg/mL; in assay [2], > 64 µg/mL; in assay [4] it was 16 µg/mL; in assay [6], 4 µg/mL; in assay [7], 1 µg/mL; in assay [8] it was 2 µg/mL. The MIC is 1 µg/mL in assay [11]; > 64 µg/mL in [13]; 64 µg/mL in assay [14]; 2 µg/mL in assay [15]; 16 µg/mL in assay [17]; 8 µg/mL in [18]. Moreover, the MIC in assay [20] was 64 µg/mL; in assay [23], 1 µg/mL; in assay [24], 64 µg/mL; in assay [25], 4 µg/mL; in [28], 2 µg/mL; in assay [33], 2 µg/mL. In assay [34], the MIC amounted to 1 µg/mL. The MBC (usually the smallest concentration meeting the test's criterion for killing) in [3] was determined as 8 µg/mL; in [12], 4 µg/mL; in [27], 4 µg/mL; in assay [37], 4 µg/mL. For the same compound, the Ratio in [5] is 4; in [10], >4; in [22] it was 4; in assay [26], 2. In assay [9], the Kb is 2.02 10^5/M. The “fractional inhibitory concentration index (FICI)” value in assay [16] stood at 0.25. In addition, the Activity entry was “Dde” in assay [19] and 30 um in assay [32]. Moreover, in [21], the Kd (as a rule, a measure of binding affinity in units of concentration) worked out at 2.49 µM. The result in assay [29], in assay [30], in [31], in assay [35] and in assay [36] was Active.

Take `CN(C)c1ccc(/C=C/c2cc(NCCCc3ccccc3)c3ccccc3[n+]2C)cc1.[I-]`: the MIC in assay [1] was 2 µg/mL; in assay [2], > 64 µg/mL; in [6], 8 µg/mL; in assay [7], 2 µg/mL; in assay [8], 2 µg/mL; in assay [11] it was 2 µg/mL. The MIC in [13] is > 64 µg/mL; in assay [14], > 64 µg/mL; in assay [15], 4 µg/mL; in [17], > 64 µg/mL; in [18] it was 4 µg/mL; in [20], > 64 µg/mL. Moreover, the MIC in assay [23] is 4 µg/mL; in [24] it was > 64 µg/mL; in assay [25], 4 µg/mL; in assay [33], 4 µg/mL; in assay [34], 2 µg/mL.

As to `CCCCNc1cc(/C=C/c2ccc(N(C)C)cc2)[n+](C)c2ccccc12.[I-]`, the MIC was 2 µg/mL in assay [1]; > 64 µg/mL in [2]; 2 µg/mL in [6]; 4 µg/mL in assay [7]; 2 µg/mL in assay [8]; 4 µg/mL in [11]. Further, the MIC in assay [13] was > 64 µg/mL; in assay [14] it was > 64 µg/mL; in assay [15] it was 8 µg/mL; in assay [17], 32 µg/mL; in [18], 16 µg/mL; in assay [20], > 64 µg/mL. The MIC was 4 µg/mL in [23]; > 64 µg/mL in assay [24]; 8 µg/mL in assay [25]; 4 µg/mL in [33]; 2 µg/mL in assay [34].

(Values after ChEMBL document CHEMBL5154863, “Design and synthesis of quinolinium-based derivatives targeting FtsZ for antibacterial evaluation and mechanistic study” (Eur J Med Chem, 2022).)
